Assay results reported in patent US9809573B2, “Substituted pyridine derivatives useful as GSK-3 inhibitors” (priority 2013, dated 2017).
Read-outs that look alike come from different tables or passages of the source.

What was measured:
[1] = molecular target: GSK3β (Homo sapiens, UniProt P49841); assay: GSK3β kinase assay (Caliper LabChip3000, fluoresceinated peptide substrate); assay type: biochemical
Outline: (§1)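 Kinase reactions ran at room temperature for 20 hours, then were stopped with EDTA. Phosphorylated product and unphosphorylated substrate were separated electrophoretically on a LabChip3000, and IC50s came from non-linear regression over eleven compound concentrations.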

[2] = molecular target: GSK3α (Homo sapiens, UniProt P49840); assay: biochemical
GSK3α, sequence (P49840 whole entry, species assumed): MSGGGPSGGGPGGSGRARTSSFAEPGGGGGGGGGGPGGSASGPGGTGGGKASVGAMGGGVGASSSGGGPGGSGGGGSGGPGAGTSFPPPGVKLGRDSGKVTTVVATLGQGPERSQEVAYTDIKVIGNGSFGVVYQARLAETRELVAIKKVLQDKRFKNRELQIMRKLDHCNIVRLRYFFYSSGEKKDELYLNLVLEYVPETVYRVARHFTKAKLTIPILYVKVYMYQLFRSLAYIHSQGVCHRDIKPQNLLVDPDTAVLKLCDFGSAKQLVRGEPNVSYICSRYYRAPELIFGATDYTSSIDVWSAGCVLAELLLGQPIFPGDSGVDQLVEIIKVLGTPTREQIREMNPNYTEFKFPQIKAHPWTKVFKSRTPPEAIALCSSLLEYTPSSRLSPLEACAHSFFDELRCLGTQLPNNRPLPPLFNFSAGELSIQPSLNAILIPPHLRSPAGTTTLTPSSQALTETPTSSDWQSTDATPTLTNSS
Outline: as §1

[3] = test system: pTau; assay: pTau assay (method not described); assay type: cell-based
[4] = first value of the cell, 250 pM enzyme, 20 uM ATP, 20 hours at room temperature, read-out: GSK3β/α (nM): GSK3β IC50
[5] = second value of the cell, 250 pM enzyme, 20 uM ATP, 20 hours at room temperature, read-out: GSK3β/α (nM): GSK3α IC50

GSK3β, sequence (P49841 whole entry, species assumed): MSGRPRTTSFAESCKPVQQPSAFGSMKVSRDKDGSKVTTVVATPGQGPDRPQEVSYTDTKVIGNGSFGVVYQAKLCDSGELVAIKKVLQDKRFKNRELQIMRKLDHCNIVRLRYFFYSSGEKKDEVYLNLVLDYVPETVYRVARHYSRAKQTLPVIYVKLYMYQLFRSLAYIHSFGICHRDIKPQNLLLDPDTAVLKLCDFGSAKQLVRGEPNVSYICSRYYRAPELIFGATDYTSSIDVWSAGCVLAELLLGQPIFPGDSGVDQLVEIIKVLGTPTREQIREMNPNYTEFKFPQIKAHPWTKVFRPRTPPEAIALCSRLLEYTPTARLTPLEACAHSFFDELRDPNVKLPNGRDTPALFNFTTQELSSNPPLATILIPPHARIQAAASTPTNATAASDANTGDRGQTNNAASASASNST

IC50 [1, 4] | IC50 [2, 5] | IC50 ([3]; read-out: pTau) | IC50 [2] | IC50 ([3]; read-out: pTau (nM)) | Compound | IC50 [1]
4.1 nM | 4.3 nM | 780 nM | – | – | N#Cc1ccc(-c2cncc(NC(=O)c3ccnc(NC(=O)C4CC4)c3)c2)cc1 [Example 115, N-(5-(4-cyanophenyl)pyridin-3-yl)-2-(cyclopropanecarboxamido)isonicotinamide] | –
– | – | – | 0.28 nM | 180 nM | O=C(Nc1cncc(-c2ccccc2F)c1)c1ccnc(NC(=O)C2CC2)c1 [Example 116, 2-(cyclopropanecarboxamido)-N-(5-(2-fluorophenyl)pyridin-3-yl)isonicotinamide] | 0.35 nM
1.5 nM | 0.74 nM | 330 nM | – | – | O=C(Nc1cncc(-n2cccn2)c1)c1ccnc(NC(=O)C2CC2)c1 [Example 118, N-(5-(1H-pyrazol-1-yl)pyridin-3-yl)-2-(cyclopropanecarboxamido)isonicotinamide] | –
2.4 nM | 1 nM | 410 nM | – | – | O=C(Nc1cncc(-n2ccnc2)c1)c1ccnc(NC(=O)C2CC2)c1 [Example 119, N-(5-(1H-imidazol-1-yl)pyridin-3-yl)-2-(cyclopropanecarboxamido)isonicotinamide] | –
11 nM | 8 nM | 5400 nM | – | – | O=C(Nc1cncc(-c2ccc(OC(F)(F)F)cc2)c1)c1ccnc(NC(=O)C2CC2)c1 [Example 120, 2-(cyclopropanecarboxamido)-N-(5-(4-(trifluoromethoxy)phenyl)pyridin-3-yl)isonicotinamide] | –
12 nM | 6.1 nM | 510 nM | – | – | O=C(Nc1cncc(-c2ccccc2C(F)(F)F)c1)c1ccnc(NC(=O)C2CC2)c1 [Example 124, 2-(cyclopropanecarboxamido)-N-(5-(2-(trifluoromethyl)phenyl)pyridin-3-yl)isonicotinamide] | –
– | – | – | 0.76 nM | 100 nM | O=C(Nc1cncc(-c2cc(F)ccc2F)c1)c1ccnc(NC(=O)C2CC2)c1 [Example 142, 2-(cyclopropanecarboxamido)-N-(5-(2,5-difluorophenyl)pyridin-3-yl)isonicotinamide] | 1.5 nM
780 nM | 170 nM | 1400 nM | – | – | CN(C)Cc1ccccc1-c1cncc(NC(=O)c2ccnc(NC(=O)C3CC3)c2)c1 [Example 145, 2-(cyclopropanecarboxamido)-N-(5-(2-((dimethylamino)methyl)phenyl)pyridin-3-yl)isonicotinamide] | –
27 nM | 5.9 nM | 950 nM | – | – | O=C(Nc1cncc(-c2cccc3[nH]ccc23)c1)c1ccnc(NC(=O)C2CC2)c1 [Example 147, N-(5-(1H-indol-4-yl)pyridin-3-yl)-2-(cyclopropanecarboxamido)isonicotinamide] | –
9.7 nM | 2.4 nM | 620 nM | – | – | O=C(Nc1cncc(-c2ccc(Cl)cc2Cl)c1)c1ccnc(NC(=O)C2CC2)c1 [Example 148, 2-(cyclopropanecarboxamido)-N-(5-(2,4-dichlorophenyl)pyridin-3-yl)isonicotinami] | –
8.8 nM | 3.1 nM | 240 nM | – | – | Cn1ccc(-c2cncc(NC(=O)c3ccnc(NC(=O)C4CC4)c3)c2)c1 [Example 151, 2-(cyclopropanecarboxamido)-N-(5-(1-methyl-1H-pyrrol-3-yl)pyridin-3-yl)isonicotinamide] | –
9.1 nM | 3.3 nM | 770 nM | – | – | O=C(Nc1cncc(-c2cccc(Cl)c2)c1)c1ccnc(NC(=O)C2CC2)c1 [Example 155, N-(5-(3-chlorophenyl)pyridin-3-yl)-2-(cyclopropanecarboxamido)isonicotinamide] | –
11 nM | 3.6 nM | 420 nM | – | – | O=C(Nc1cncc(-c2cccc(N3CCOCC3)c2)c1)c1ccnc(NC(=O)C2CC2)c1 [Example 156, 2-(cyclopropanecarboxamido)-N-(5-(3-morpholinophenyl)pyridin-3-yl)isonicotinamide] | –
7.9 nM | 3.3 nM | 670 nM | – | – | O=C(Nc1cncc(-c2cccc(OC(F)F)c2)c1)c1ccnc(NC(=O)C2CC2)c1 [Example 157, 2-(cyclopropanecarboxamido)-N-(5-(3-(difluoromethoxy)phenyl)pyridin-3-yl)isonicotinamide] | –
7.7 nM | 2.5 nM | 425 nM | – | – | CCOc1cccc(-c2cncc(NC(=O)c3ccnc(NC(=O)C4CC4)c3)c2)c1Cl [Example 158, N-(5-(2-chloro-3-ethoxyphenyl)pyridin-3-yl)-2-(cyclopropanecarboxamido)isonicotinamide] | –
1.7 nM | 0.6 nM | 175 nM | – | – | O=C(Nc1cncc(-c2cncc(F)c2)c1)c1ccnc(NC(=O)C2CC2)c1 [Example 161, 2-(cyclopropanecarboxamido)-N-(5′-fluoro-[3,3′-bipyridin]-5-yl)isonicotinamide] | –
6 nM | 1.7 nM | 130 nM | – | – | O=C(Nc1cncc(-c2ccc(F)nc2)c1)c1ccnc(NC(=O)C2CC2)c1 [Example 163, 2-(cyclopropanecarboxamido)-N-(6′-fluoro-[3,3′-bipyridin]-5-yl)isonicotinamide] | –
6 nM | 1.4 nM | 270 nM | – | – | COc1cccc(-c2cncc(NC(=O)c3ccnc(NC(=O)C4CC4)c3)c2)n1 [Example 164, 2-(cyclopropanecarboxamido)-N-(6-methoxy-[2,3′-bipyridin]-5′-yl)isonicotinamide] | –
3.8 nM | 1.3 nM | 125 nM | – | – | O=C(Nc1cncc(-c2cccc(F)n2)c1)c1ccnc(NC(=O)C2CC2)c1 [Example 165, 2-(cyclopropanecarboxamido)-N-(6-fluoro-[2,3′-bipyridin]-5′-yl)isonicotinamide] | –
44 nM | 11 nM | 360 nM | – | – | O=C(Nc1cncc(-c2ccnc(F)c2F)c1)c1ccnc(NC(=O)C2CC2)c1 [Example 166, 2-(cyclopropanecarboxamido)-N-(2′,3′-difluoro-[3,4′-bipyridin]-5-yl)isonicotinamide] | –
20 nM | 9.3 nM | 5500 nM | – | – | O=C(Nc1cnccc1-c1cc(Br)cc(Br)c1)c1ccnc(NC(=O)C2CC2)c1 [Example 167, 2-(cyclopropanecarboxamido)-N-(4-(3,5-dibromophenyl)pyridin-3-yl)isonicotinamide] | –
6.8 nM | 2.2 nM | 240 nM | – | – | O=C(Nc1cnccc1-c1ccc(Br)cc1)c1ccnc(NC(=O)C2CC2)c1 [Example 168, N-(4-(4-bromophenyl)pyridin-3-yl)-2-(cyclopropanecarboxamido)isonicotinamide] | –

Compound | IC50 [1, 4] | IC50 [2, 5] | IC50 ([3]; read-out: pTau) | IC50 [2] | IC50 ([3]; read-out: pTau (nM)) | IC50 [1]
COc1ccccc1-c1cncc(NC(=O)c2ccnc(NC(=O)C3CC3)c2)c1 [Example 123, 2-(cyclopropanecarboxamido)-N-(5-(2-methoxyphenyl)pyridin-3-yl)isonicotinamide] | – | 1.4 nM | – | – | 200 nM | 3.7 nM
O=C(Nc1cncc(-c2cncc(Cl)c2)c1)c1ccnc(NC(=O)C2CC2)c1 [Example 160] | – | 1.6 nM | 150 nM | – | – | 3.9 nM
Cc1ccc(-c2cncc(NC(=O)c3ccnc(NC(=O)C4CC4)c3)c2)cn1 [Example 162, 2-(cyclopropanecarboxamido)-N-(6′-methyl-[3,3′-bipyridin]-5-yl)isonicotinamide] | – | 1.1 nM | 115 nM | – | – | 2.5 nM
